Measured values from ChEMBL document CHEMBL1127439, “Structure-activity relationship studies of central nervous system agents. 13. 4-[3-(Benzotriazol-1-yl)propyl]-1-(2-methoxyphenyl)piperazine, a new putative 5-HT1A receptor antagonist, and its analogs” (J Med Chem, 1994).

Tests used:
[1] = target: T1, 5-hydroxytryptamine receptor 1A (Rattus norvegicus, UniProt P19327); assay: Tested in vitro for receptor binding affinity against 5-hydroxytryptamine 1A receptor using radioligand [3H]8-OH-DPAT
T1 sequence (P19327 whole entry): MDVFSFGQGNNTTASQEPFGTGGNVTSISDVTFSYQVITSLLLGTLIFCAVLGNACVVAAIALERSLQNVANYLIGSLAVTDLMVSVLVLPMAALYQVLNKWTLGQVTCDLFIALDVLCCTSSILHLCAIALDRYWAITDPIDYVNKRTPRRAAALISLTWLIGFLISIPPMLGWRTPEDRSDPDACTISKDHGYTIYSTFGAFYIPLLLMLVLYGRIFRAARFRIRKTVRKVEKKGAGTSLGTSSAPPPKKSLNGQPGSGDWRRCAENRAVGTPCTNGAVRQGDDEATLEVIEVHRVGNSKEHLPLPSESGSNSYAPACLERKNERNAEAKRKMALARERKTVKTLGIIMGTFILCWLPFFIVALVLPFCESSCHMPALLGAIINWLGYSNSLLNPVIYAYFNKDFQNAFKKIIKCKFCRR

[2] = target: Serotonin 2 (5-HT2) receptor (Rattus norvegicus, UniProt P30994+P08909+P14842); assay: Tested in vitro for receptor binding affinity against 5-hydroxytryptamine 2 receptor using radioligand [3H]ketanserin; type: protein assay
[3] = test system: Mus musculus; assay: Effect on 8-OH-DPAT-induced hypothermia in mice (5 mg/kg) at intraperitoneal dosage of 4 mg/kg of compound after 30 mins. Values expressed as +/- SEM; type: functional
[4] = test system: Mus musculus; assay: Effect on 8-OH-DPAT-induced hypothermia in mice (5 mg/kg) at intraperitoneal dosage of 4 mg/kg of compound after 45 mins. Values expressed as +/- SEM; type: functional
[5] = test system: Mus musculus; assay: Effect on 8-OH-DPAT-induced hypothermia in mice (5 mg/kg) at intraperitoneal dosage of 4 mg/kg of compound after 60 mins. Values expressed as +/- SEM; type: functional
[6] = test system: Mus musculus; assay: Effect on 8-OH-DPAT-induced hypothermia in mice (5 mg/kg) at intraperitoneal dosage of 8 mg/kg of compound after 15 mins. Values expressed as +/- SEM; type: functional
[7] = test system: Mus musculus; assay: Effect on 8-OH-DPAT-induced hypothermia in mice (5 mg/kg) at intraperitoneal dosage of 8 mg/kg of compound after 30 mins. Values expressed as +/- SEM; type: functional
[8] = test system: Mus musculus; assay: Effect on 8-OH-DPAT-induced hypothermia in mice (5 mg/kg) at intraperitoneal dosage of 8 mg/kg of compound after 45 mins. Values expressed as +/- SEM; type: functional
[9] = test system: Mus musculus; assay: Effect on 8-OH-DPAT-induced hypothermia in mice (5 mg/kg) at intraperitoneal dosage of 8 mg/kg of compound after 60 mins; type: functional
[10] = test system: Mus musculus; assay: Effect on 8-OH-DPAT-induced hypothermia in mice (5 mg/kg) at intraperitoneal dosage of 16 mg/kg of compound after 15 mins; type: functional
[11] = test system: Mus musculus; assay: Effect on 8-OH-DPAT-induced hypothermia in mice (5 mg/kg) at intraperitoneal dosage of 16 mg/kg of compound after 30 mins; type: functional
[12] = test system: Mus musculus; assay: Effect on 8-OH-DPAT-induced hypothermia in mice (5 mg/kg) at intraperitoneal dosage of 16 mg/kg of compound after 45 mins; type: functional
[13] = test system: Mus musculus; assay: Effect on 8-OH-DPAT-induced hypothermia in mice (5 mg/kg) at intraperitoneal dosage of 16 mg/kg of compound after 60 mins; type: functional
[14] = test system: Mus musculus; assay: Effect on 8-OH-DPAT-induced hypothermia in mice (5 mg/kg) at intraperitoneal dosage of 4 mg/kg of compound after 15 mins. Values expressed as +/- SEM; type: functional
[15] = test system: Rattus norvegicus; assay: Tested for the effect on 8-OH-DPAT-induced behavior in reserpine pretreated rat against flat body posture at dosage of 16 mg/kg; type: functional
[16] = test system: Rattus norvegicus; assay: Tested for the effect on 8-OH-DPAT-induced behavior in reserpine pretreated rat against flat body posture at dosage of 4 mg/kg; type: functional
[17] = test system: Rattus norvegicus; assay: Tested for the effect on 8-OH-DPAT-induced behavior in reserpine pretreated rat against flat body posture at dosage of 8 mg/kg; type: functional
[18] = test system: Rattus norvegicus; assay: Tested for the effect on 8-OH-DPAT-induced behavior in reserpine pretreated rat against forepaw treading at dosage of 16 mg/kg; type: functional
[19] = test system: Rattus norvegicus; assay: Tested for the effect on 8-OH-DPAT-induced behavior in reserpine pretreated rat against forepaw treading at dosage of 8 mg/kg; type: functional
[20] = test system: Rattus norvegicus; assay: Tested for the effect on 8-OH-DPAT-induced lower lip retraction (LLR) in rat at dosage of 16 mg/kg; type: functional
[21] = test system: Rattus norvegicus; assay: Tested for the effect on 8-OH-DPAT-induced lower lip retraction (LLR) in rat at dosage of 2 mg/kg; type: functional
[22] = test system: Rattus norvegicus; assay: Tested for the effect on 8-OH-DPAT-induced lower lip retraction (LLR) in rat at dosage of 4 mg/kg; type: functional
[23] = test system: Rattus norvegicus; assay: Tested for the effect on 8-OH-DPAT-induced lower lip retraction (LLR) in rat at dosage of 8 mg/kg; type: functional
[24] = test system: Rattus norvegicus; assay: Tested for the induction of lower lip retraction (LLR) by the investigated compounds in rat at dosage of 16 mg/kg; type: functional
[25] = test system: Rattus norvegicus; assay: Tested for the induction of lower lip retraction (LLR) by the investigated compounds in rat at dosage of 2 mg/kg; type: functional
[26] = test system: Rattus norvegicus; assay: Tested for the induction of lower lip retraction (LLR) by the investigated compounds in rat at dosage of 4 mg/kg; type: functional
[27] = test system: Rattus norvegicus; assay: Tested for the induction of lower lip retraction (LLR) by the investigated compounds in rat at dosage of 8 mg/kg; type: functional
[28] = organism: Rattus norvegicus; assay: Selectivity is the ratio between Ki values of 5-HT2 and 5-HT1A
[29] = test system: Rattus norvegicus; assay: Tested for the effect on 8-OH-DPAT-induced behavior in reserpine pretreated rat against forepaw treading at dosage of 4 mg/kg; type: functional
[30] = test system: Mus musculus; assay: Effect on body temperature in mice at intraperitoneal dosage of 2 mg/kg, (compound administered 30 min before the test) after 30 min; type: functional
[31] = test system: Mus musculus; assay: Effect on body temperature in mice at intraperitoneal dosage of 2 mg/kg, (compound administered 30 min before the test) after 45 min; type: functional
[32] = test system: Mus musculus; assay: Effect on body temperature in mice at intraperitoneal dosage of 2 mg/kg, (compound administered 30 min before the test) after 60 min; type: functional
[33] = test system: Mus musculus; assay: Effect on 8-OH-DPAT-induced hypothermia in mice (5 mg/kg) at intraperitoneal dosage of 4 mg/kg of compound after 45 mins; type: functional
[34] = test system: Mus musculus; assay: Effect on 8-OH-DPAT-induced hypothermia in mice (5 mg/kg) at intraperitoneal dosage of 4 mg/kg of compound after 60 mins; type: functional
[35] = test system: Mus musculus; assay: Effect on 8-OH-DPAT-induced hypothermia in mice (5 mg/kg) at intraperitoneal dosage of 8 mg/kg of compound after 15 mins; type: functional
[36] = test system: Mus musculus; assay: Effect on 8-OH-DPAT-induced hypothermia in mice (5 mg/kg) at intraperitoneal dosage of 8 mg/kg of compound after 30 mins; type: functional
[37] = test system: Mus musculus; assay: Effect on 8-OH-DPAT-induced hypothermia in mice (5 mg/kg) at intraperitoneal dosage of 8 mg/kg of compound after 45 mins; type: functional
[38] = test system: Mus musculus; assay: Effect on body temperature in mice at intraperitoneal dosage of 8 mg/kg, (compound administered 30 min before the test) after 75 min; type: functional
[39] = test system: Mus musculus; assay: Effect on body temperature in mice at intraperitoneal dosage of 8 mg/kg, (compound administered 30 min before the test) after 90 min; type: functional
[40] = test system: Mus musculus; assay: Effect on body temperature in mice at intraperitoneal dosage of 2 mg/kg, (compound administered 30 min before the test) after 75 min; type: functional
[41] = test system: Mus musculus; assay: Effect on 8-OH-DPAT-induced hypothermia in mice (5 mg/kg) at intraperitoneal dosage of 2 mg/kg of compound after 15 mins; type: functional
[42] = test system: Mus musculus; assay: Effect on 8-OH-DPAT-induced hypothermia in mice (5 mg/kg) at intraperitoneal dosage of 2 mg/kg of compound after 30 mins; type: functional
[43] = test system: Mus musculus; assay: Effect on 8-OH-DPAT-induced hypothermia in mice (5 mg/kg) at intraperitoneal dosage of 2 mg/kg of compound after 45 mins; type: functional
[44] = test system: Mus musculus; assay: Effect on 8-OH-DPAT-induced hypothermia in mice (5 mg/kg) at intraperitoneal dosage of 2 mg/kg of compound after 60 mins; type: functional
[45] = test system: Mus musculus; assay: Effect on 8-OH-DPAT-induced hypothermia in mice (5 mg/kg) at intraperitoneal dosage of 4 mg/kg of compound after 15 mins; type: functional
[46] = test system: Mus musculus; assay: Effect on 8-OH-DPAT-induced hypothermia in mice (5 mg/kg) at intraperitoneal dosage of 4 mg/kg of compound after 30 mins; type: functional
[47] = test system: Mus musculus; assay: Effect on body temperature in mice at intraperitoneal dosage of 2 mg/kg, (compound administered 30 min before the test) after 90 min; type: functional
[48] = test system: Mus musculus; assay: Effect on body temperature in mice at intraperitoneal dosage of 4 mg/kg, (compound administered 30 min before the test) after 60 min; type: functional
[49] = test system: Mus musculus; assay: Effect on body temperature in mice at intraperitoneal dosage of 4 mg/kg, (compound administered 30 min before the test) after 75 min; type: functional
[50] = test system: Mus musculus; assay: Effect on body temperature in mice at intraperitoneal dosage of 4 mg/kg, (compound administered 30 min before the test) after 90 min; type: functional
[51] = test system: Mus musculus; assay: Effect on body temperature in mice at intraperitoneal dosage of 4 mg/kg, (compound administered 30 min before the test) after 30 min; type: functional
[52] = test system: Mus musculus; assay: Effect on body temperature in mice at intraperitoneal dosage of 8 mg/kg, (compound administered 30 min before the test) after 30 min; type: functional
[53] = test system: Mus musculus; assay: Effect on body temperature in mice at intraperitoneal dosage of 8 mg/kg, (compound administered 30 min before the test) after 45 min; type: functional
[54] = test system: Mus musculus; assay: Effect on body temperature in mice at intraperitoneal dosage of 8 mg/kg, (compound administered 30 min before the test) after 60 min; type: functional
[55] = test system: Rattus norvegicus; assay: Tested for the effect on 8-OH-DPAT-induced behavior in reserpine pretreated rat against flat body posture at dosage of 1 mg/kg; type: functional
[56] = test system: Rattus norvegicus; assay: Tested for the effect on 8-OH-DPAT-induced behavior in reserpine pretreated rat against flat body posture at dosage of 2 mg/kg; type: functional
[57] = test system: Rattus norvegicus; assay: Tested for the effect on 8-OH-DPAT-induced behavior in reserpine pretreated rat against forepaw treading at dosage of 1 mg/kg; type: functional
[58] = test system: Rattus norvegicus; assay: Tested for the effect on 8-OH-DPAT-induced behavior in reserpine pretreated rat against forepaw treading at dosage of 2 mg/kg; type: functional
[59] = test system: Mus musculus; assay: Effect on body temperature in mice at intraperitoneal dosage of 4 mg/kg, (compound administered 30 min before the test) after 45 min; type: functional

COc1ccccc1N1CCN(CCCCn2nnc3ccccc32)CC1
Ki [1]: 17 nM
Ki [2]: 160 nM
Delta t [3]: 4.2 °C
Delta t [4]: 3.8 °C
Delta t [5]: 3.2 °C
Delta t [6]: 3.9 °C
Delta t [7]: 4.1 °C
Delta t [8]: 3.5 °C
Delta t [9]: 2.7 °C
Delta t [10]: 5.3 °C
Delta t [11]: 5.6 °C
Delta t [12]: 5.6 °C
Delta t [13]: 5.2 °C
Delta t [14]: 3.9 °C
Behavioral score [15]: 12.7
Behavioral score [16]: 11
Behavioral score [17]: 8.2
Behavioral score [18]: 6.1
Behavioral score [19]: 3.6
LLR score [20]: 2.4
LLR score [21]: 2.2
LLR score [22]: 2.1
LLR score [23]: 1.9
LLR score [24]: 0.7
LLR score [25]: 0.2
LLR score [26]: 0.3
LLR score [27]: 0.1
Selectivity [28]: 9.4
Behavioral score [29]: 10.3

COc1ccccc1N1CCN(CCCCn2nc3ccccc3n2)CC1
Ki [1]: 4 nM
Ki [2]: 214 nM
Delta t [30]: 0.1 °C
Delta t [31]: 0 °C
Delta t [32]: 0.2 °C
Delta t [33]: 1.8 °C
Delta t [34]: 1.3 °C
Delta t [35]: 2.4 °C
Delta t [36]: 2.2 °C
Delta t [37]: 1.6 °C
Delta t [9]: 1.1 °C
Delta t [38]: 2 °C
Delta t [39]: 1.4 °C
Delta t [40]: 0.3 °C
Delta t [41]: 2.1 °C
Delta t [42]: 1.9 °C
Delta t [43]: 1.2 °C
Delta t [44]: 0.9 °C
Delta t [45]: 2.7 °C
Delta t [46]: 2.3 °C
Delta t [47]: 0.1 °C
Delta t [48]: 0.9 °C
Delta t [49]: 0.8 °C
Delta t [50]: 0.8 °C
Delta t [51]: 0.9 °C
Delta t [52]: 2.8 °C
Delta t [53]: 2.5 °C
Delta t [54]: 2 °C
Behavioral score [55]: 14.2
Behavioral score [15]: 2.6
Behavioral score [56]: 9.3
Behavioral score [16]: 11.7
Behavioral score [17]: 5.2
Behavioral score [57]: 13.6
Behavioral score [18]: 1.3
Behavioral score [58]: 5.6
Behavioral score [19]: 2.4
LLR score [20]: 2.4
LLR score [21]: 2.5
LLR score [22]: 2.3
LLR score [23]: 2.4
LLR score [24]: 1.9
LLR score [25]: 0.3
LLR score [26]: 1
LLR score [27]: 1.5
Selectivity [28]: 54
Delta t [59]: 0.8 °C
Behavioral score [29]: 5.1
